Patent US20120324604A1, “PESTICIDAL MIXTURES CONTAINING ISOXAZOLINE DERIVATIVES AND A FUNGICIDE” (priority 2010, published 2012)

Experiments:
Assay type in all cases: cell-based
[1] = test system: Pythium ultimum; test: Pythium ultimum (Damping Off) growth inhibition, microtiter plate, photometric
Experimental: Pythium ultimum (Damping Off):
Mycelial fragments of the fungus, prepared from a fresh liquid culture, were directly mixed into nutrient broth (potato dextrose broth). After placing a (DMSO) solution of the test compounds into a microtiter plate (96-well format) the nutrient broth containing the fungal spores was added.

[2] = test system: Rhizoctonia solani; test: Rhizoctonia solani (Foot Rot, Damping-Off) growth inhibition, microtiter plate, photometric
Experimental: Rhizoctonia solani (Foot Rot, Damping-Off):
Mycelial fragments of the fungus from cryogenic storage were directly mixed into nutrient broth (potato dextrose broth). After placing a (DMSO) solution of the test compounds into a microtiter plate (96-well format) the nutrient broth containing the fungal spores was added.

[3] = test system: Gaeumannomyces graminis; test: Gaeumannomyces graminis growth inhibition, microtiter plate, photometric
Experimental: Mycelial fragments of the fungus from cryogenic storage were directly mixed into nutrient broth (potato dextrose broth). After placing a (DMSO) solution of the test compounds into a microliter plate (96-well format) the nutrient broth containing the fungal spores was added.

[4] = test system: Glomerella lagenarium (syn. Colletotrichum lagenarium); test: Glomerella lagenarium (Anthracnose of Cucurbits) growth inhibition, microtiter plate, photometric; conditions: alone
Experimental: Glomerella lagenarium (syn. Colletotrichum lagenarium), Anthracnose of Cucurbits:
(§1) Conidia of the fungus from cryogenic storage were directly mixed into nutrient broth (potato dextrose broth). After placing a (DMSO) solution of the test compounds into a microtiter plate (96-well format) the nutrient broth containing the fungal spores was added.

[5] = test system: Septoria tritici; test: Septoria tritici (Leaf Blotch) growth inhibition, microtiter plate, photometric; conditions: A5 alone
Experimental: Septoria tritici (Leaf Blotch):
as §1

[6] = test system: Mycosphaerella arachidis (syn. Cercospora arachidicola); test: Mycosphaerella arachidis (Brown Leaf Spot of Groundnut) growth inhibition, microtiter plate, photometric; conditions: alone
Experimental: Mycosphaerella arachidis (syn. Cercospora arachidicola), Brown Leaf Spot of Groundnut (Peanut):
as §1

[7] = test system: Fusarium culmorum; test: Fusarium culmorum (Root Rot) growth inhibition, microtiter plate, photometric
Experimental: Fusarium culmorum (Root Rot):
as §1

[8] = single compound at 0.0390625 ppm AI
[9] = single compound at 0.078125 ppm AI
[10] = single compound at 0.15625 ppm AI
[11] = single compound at 0.3125 ppm AI
[12] = single compound at 0.625 ppm AI

Cc1cc(C2=NOC(c3cc(Cl)cc(Cl)c3)(C(F)(F)F)C2)ccc1C(=O)NC1CSC1 (racemic) [A5]
0%: AVERAGE DEAD IN % [1, 8] | AVERAGE DEAD IN % [1, 9] | AVERAGE DEAD IN % [1, 10] | AVERAGE DEAD IN % [1, 11] | AVERAGE DEAD IN % [1, 12] | AVERAGE DEAD IN % ([1]; single compound at 1.25 ppm AI) | AVERAGE DEAD IN % ([1]; single compound at 2.5 ppm AI) | AVERAGE DEAD IN % ([1]; single compound at 5 ppm AI) | AVERAGE DEAD IN % ([1]; single compound at 10 ppm AI) | AVERAGE DEAD IN % ([1]; single compound at 20 ppm AI) | AVERAGE DEAD IN % ([2]; applied alone, 0.0390625 ppm AI) | AVERAGE DEAD IN % ([2]; applied alone, 0.078125 ppm AI) | AVERAGE DEAD IN % ([2]; applied alone, 0.15625 ppm AI) | AVERAGE DEAD IN % ([2]; applied alone, 0.3125 ppm AI) | AVERAGE DEAD IN % ([2]; applied alone, 0.625 ppm AI) | AVERAGE DEAD IN % ([2]; applied alone, 1.25 ppm AI) | AVERAGE DEAD IN % ([2]; applied alone, 2.5 ppm AI) | AVERAGE DEAD IN % ([2]; applied alone, 5 ppm AI) | AVERAGE DEAD IN % ([2]; applied alone, 10 ppm AI) | AVERAGE DEAD IN % ([2]; applied alone, 20 ppm AI) | AVERAGE DEAD IN % ([2]; single compound at 2.5 ppm AI) | AVERAGE DEAD IN % [3, 8] | AVERAGE DEAD IN % [3, 9] | AVERAGE DEAD IN % [3, 10] | AVERAGE DEAD IN % [3, 11] | AVERAGE DEAD IN % [3, 12] | AVERAGE DEAD IN % ([3]; single compound at 1.25 ppm AI) | AVERAGE DEAD IN % ([3]; single compound at 2.5 ppm AI) | AVERAGE DEAD IN % ([3]; single compound at 5 ppm AI) | AVERAGE DEAD IN % ([3]; single compound at 10 ppm AI) | AVERAGE DEAD IN % ([3]; single compound at 20 ppm AI) | AVERAGE DEAD IN % ([4]; 0.0390625 ppm AI) | AVERAGE DEAD IN % ([4]; 0.078125 ppm AI) | AVERAGE DEAD IN % ([4]; 0.15625 ppm AI) | AVERAGE DEAD IN % ([4]; 0.3125 ppm AI) | AVERAGE DEAD IN % ([4]; 0.625 ppm AI) | AVERAGE DEAD IN % ([4]; 1.25 ppm AI) | AVERAGE DEAD IN % ([4]; 2.5 ppm AI) | AVERAGE DEAD IN % ([4]; 5 ppm AI) | AVERAGE DEAD IN % ([4]; 10 ppm AI) | AVERAGE DEAD IN % ([4]; 20 ppm AI) | AVERAGE DEAD IN % A5 ([5]; 0.0390625 ppm AI) | AVERAGE DEAD IN % A5 ([5]; 0.078125 ppm AI) | AVERAGE DEAD IN % A5 ([5]; 0.15625 ppm AI) | AVERAGE DEAD IN % A5 ([5]; 0.3125 ppm AI) | AVERAGE DEAD IN % A5 ([5]; 0.625 ppm AI) | AVERAGE DEAD IN % A5 ([5]; 1.25 ppm AI) | AVERAGE DEAD IN % A5 ([5]; 2.5 ppm AI) | AVERAGE DEAD IN % A5 ([5]; 5 ppm AI) | AVERAGE DEAD IN % A5 ([5]; 10 ppm AI) | AVERAGE DEAD IN % ([6]; 0.078125 ppm AI) | AVERAGE DEAD IN % ([6]; 0.15625 ppm AI) | AVERAGE DEAD IN % ([6]; 0.3125 ppm AI) | AVERAGE DEAD IN % ([6]; 0.625 ppm AI) | AVERAGE DEAD IN % ([6]; 1.25 ppm AI) | AVERAGE DEAD IN % ([6]; 2.5 ppm AI) | AVERAGE DEAD IN % ([6]; 5 ppm AI) | AVERAGE DEAD IN % ([6]; 10 ppm AI) | AVERAGE DEAD IN % ([6]; 20 ppm AI) | AVERAGE DEAD IN % ([6]; 0.0390625 PPM AI) | AVERAGE DEAD IN % ([6]; 0.078125 PPM AI) | AVERAGE DEAD IN % ([6]; 0.15625 PPM AI) | AVERAGE DEAD IN % ([6]; 0.3125 PPM AI) | AVERAGE DEAD IN % ([6]; 0.625 PPM AI) | AVERAGE DEAD IN % ([6]; 1.25 PPM AI) | AVERAGE DEAD IN % ([6]; 2.5 PPM AI) | AVERAGE DEAD IN % ([6]; 5 PPM AI) | AVERAGE DEAD IN % ([6]; 10 PPM AI) | AVERAGE DEAD IN % ([7]; alone, 1.25 PPM AI) | AVERAGE DEAD IN % ([7]; alone, 2.5 PPM AI) | AVERAGE DEAD IN % ([7]; alone, 5 PPM AI) | AVERAGE DEAD IN % ([7]; alone, 10 PPM AI) | AVERAGE DEAD IN % ([7]; alone, 20 PPM AI) | AVERAGE DEAD IN % ([7]; single compound, 0.625 PPM AI, 48 hrs, 24° C.) | AVERAGE DEAD IN % ([7]; single compound, 1.25 PPM AI, 48 hrs, 24° C.) | AVERAGE DEAD IN % ([7]; single compound, 2.5 PPM AI, 48 hrs, 24° C.) | AVERAGE DEAD IN % ([7]; single compound, 5 PPM AI, 48 hrs, 24° C.) | AVERAGE DEAD IN % ([7]; single compound, 10 PPM AI, 48 hrs, 24° C.) | AVERAGE DEAD IN % ([7]; single compound, 20 PPM AI, 48 hrs, 24° C.)
